# Results reported in patent publication US5268308A, “Immunoassay for pyridostigmine” (priority 1989, dated 1993).
# Biological target: Pyridostigmine Antibody
# Assay: Cross-reactivity with pyridostigmine antibody in RIA (competition with labeled pyridostigmine)
# Type: binding, rabbit (male New Zealand white)
# Details: labeled pyridostigmine 5000 DPM; maximum tested 500 ng
# Procedure: Antibodies to the pyridostigmine-BSA immunogen were produced by injecting male New Zealand white rabbits. Prior to injection, the immunogen was emulsified with an equal volume of complete Freund's adjuvant, purchased from Difco Laboratories. The initial immunization consisted of 0.8 mg of protein injected intracutaneously into the back of the rabbits. Booster injections containing 0.8 mg of immunogen and incomplete Freund's adjuvant were administered every one or two months for the next seven months. Blood was collected one week after each booster injection from the central ear vein. The blood was allowed to clot at room temperature and then centrifuged at 1500×g for 15 minutes. The separated serum was stored frozen at -20° C. until assayed for the presence of pyridostigmine antibody. […] FIG. 1 is the antibody dilution curve for pyridostigmine.
# In the assay procedure tritiated pyridostigmine having specificity of […] was used as tracer. The dilution of tracer, antisera and pyridostigmine standards were made using 0.01 M phosphate buffer containing 150 mM sodium chloride with a pH of 7.4.. […] Both standard and sample tubes were always analyzed in duplicate. The assay was carried out according to the protocol shown in. Table 1 with the reagents were added to the assay tubes in the order shown in.
# According to the protocol for the RIA of the present invention, after the addition of antisera, the contents of the tubes were mixed and incubated for 3 hours at 4° C. The antigen which bound to the antibody was separated by adding 100% saturated ammonium sulfate and centrifuging at 2500×g for 15 minutes. After aspiration of the supernatant, the precipitate was washed one time with 50% saturated ammonium sulfate; then the mixture was centrifuged and the supernatent removed. The precipitate was dissolved in 1.0 ml of distilled water, and the solution was transferred to a scintillation vial containing 10.0 ml of acquasol.
# Cross-reactivity of various compounds with pyridostigmine antibody was determined in the RIA. […] Each compound was tested for cross-reactivity with the antibody. The maximum concentration of each compound tested was 500 ng.
row,SMILES,IC 50 (50% inhibition of binding of 3H-pyridostigmine to the antibody) [ng]
1,C[n+]1cccc(O)c1 [3-Hydroxy-N-methyl-pyridostigmine],> 500
2,CN(C)C(=O)Oc1cccc([N+](C)(C)C)c1 [Neostigmine],> 500
3,CNC(=O)Oc1ccc2c(c1)[C@]1(C)CCN(C)[C@@H]1N2C [Physostigmmine],> 500
4,C[n+]1ccccc1/C=N/O [Pralidoxime Chloride],> 500
